For this assay, the target named is recombinant human SAE enzyme (Homo sapiens (Human), UniProt Q9UBT2). Put plainly: SAE HTRF enzyme assay. The assay is classed as biochemical. The settings on record: for Percent Inhibition: SAE inhibition at compound concentration 0.111 μM; for IC50: SAE inhibition, class symbols, legend in nM. An outline of the steps:
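0.11 nM SAE incubated with 0.5 μM ATP, 0.01 μM Ubc9-GST and 0.125 μM Sumo-Flag in HEPES pH 7.5, MgCl2, GSH, BSA, ±inhibitor, 105 min at 24° C. EDTA stop; Eu-cryptate anti-Flag/XL-APC anti-GST HTRF read after 2 h. Values given as single-concentration % inhibition or IC50.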
In general terms: In TR-FRET formats the signal depends on donor and acceptor labels being close together.

Sequence of recombinant human SAE enzyme (Q9UBT2 whole entry): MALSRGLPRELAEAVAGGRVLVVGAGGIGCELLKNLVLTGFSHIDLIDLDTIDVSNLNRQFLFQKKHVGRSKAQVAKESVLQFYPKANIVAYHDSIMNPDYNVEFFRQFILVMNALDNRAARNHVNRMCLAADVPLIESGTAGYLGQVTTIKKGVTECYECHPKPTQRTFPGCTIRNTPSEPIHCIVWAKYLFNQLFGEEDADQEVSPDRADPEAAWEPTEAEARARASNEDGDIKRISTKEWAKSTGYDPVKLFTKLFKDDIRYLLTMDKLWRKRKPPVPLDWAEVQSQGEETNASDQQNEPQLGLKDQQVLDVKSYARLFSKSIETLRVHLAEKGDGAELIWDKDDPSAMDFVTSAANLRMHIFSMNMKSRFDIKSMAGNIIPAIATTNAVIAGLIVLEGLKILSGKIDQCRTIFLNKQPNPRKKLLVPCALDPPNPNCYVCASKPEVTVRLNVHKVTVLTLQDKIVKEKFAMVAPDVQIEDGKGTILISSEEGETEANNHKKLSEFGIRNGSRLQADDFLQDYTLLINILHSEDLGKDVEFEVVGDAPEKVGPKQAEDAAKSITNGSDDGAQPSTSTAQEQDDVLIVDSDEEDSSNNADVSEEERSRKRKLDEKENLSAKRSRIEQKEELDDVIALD
Sequence of recombinant human SAE enzyme (Q9UBE0 whole entry partner): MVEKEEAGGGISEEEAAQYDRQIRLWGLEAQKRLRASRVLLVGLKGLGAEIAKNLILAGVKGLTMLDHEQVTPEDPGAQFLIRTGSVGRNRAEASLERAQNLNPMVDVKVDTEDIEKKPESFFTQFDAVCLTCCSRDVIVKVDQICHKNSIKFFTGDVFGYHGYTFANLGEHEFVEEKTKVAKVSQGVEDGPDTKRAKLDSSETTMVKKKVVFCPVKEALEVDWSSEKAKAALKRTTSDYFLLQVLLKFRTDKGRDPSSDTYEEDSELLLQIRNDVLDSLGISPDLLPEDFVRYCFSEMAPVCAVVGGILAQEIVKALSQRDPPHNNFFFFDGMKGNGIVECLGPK

In general, IC50 refers to the concentration needed to halve the response being measured. `Cc1ccc2c(n1)[C@H](c1cc(C(=O)c3cncnc3N[C@@H]3C[C@H](COS(N)(=O)=O)[C@@H](O)C3)sc1C)OCC2` (mixture of isomers) [I-291, [(1R,2S,4R)-2-hydroxy-4-{[5-({5-methyl-4-[(8S)-2-methyl-5,8-dihydro-6H-pyrano[3,4-b]pyridin-8-yl]-2-thienyl}carbonyl)pyrimidin-4-yl]amino}cyclopentyl]methyl sulfamate and [(1R,2S,4R)-2-hydroxy-4-{[5-({5-methyl-4-[(8R)-2-methyl-5,8-dihydro-6H-pyrano[3,4-b]pyridin-8-yl]-2-thienyl}carbonyl)pyrimidin-4-yl]amino}cyclopentyl]methyl sulfamate]: the “Percent Inhibition” value turned out to be 99% and the IC50 is less than 10 nM.

As to `NS(=O)(=O)OC[C@H]1C[C@@H](Nc2ncncc2C(=O)c2cc([C@@H]3OCC(F)(F)c4ccccc43)cs2)C[C@@H]1O` (mixture of isomers) [I-293, [(1R,2S,4R)-4-{[5-({4-[(1R)-4,4-difluoro-3,4-dihydro-1H-isochromen-1-yl]-2-thienyl}carbonyl)pyrimidin-4-yl]amino}-2-hydroxycyclopentyl]methyl sulfamate and [(1R,2S,4R)-4-{[5-({4-[(1S)-4,4-difluoro-3,4-dihydro-1H-isochromen-1-yl]-2-thienyl}carbonyl)pyrimidin-4-yl]amino}-2-hydroxycyclopentyl]methyl sulfamate], the “Percent Inhibition” value was determined as 98% and the IC50 is less than 10 nM.

Turning to `NS(=O)(=O)OC[C@H]1C[C@@H](Nc2ncncc2C(=O)c2cc([C@H]3NCCc4ccccc43)cs2)[C@H](O)[C@@H]1O` (mixture of isomers) [I-295, [(1R,2R,3S,4R)-2,3-dihydroxy-4-{[5-({4-[(1S)-1,2,3,4-tetrahydroisoquinolin-1-yl]-2-thienyl}carbonyl)pyrimidin-4-yl]amino}cyclopentyl]methyl sulfamate and [(1R,2R,3S,4R)-2,3-dihydroxy-4-{[5-({4-[(1R)-1,2,3,4-tetrahydroisoquinolin-1-yl]-2-thienyl}carbonyl)pyrimidin-4-yl]amino}cyclopentyl]methyl sulfamate], the “Percent Inhibition” value came out at 99% and the IC50 is less than 10 nM.

On to `Cc1sc(C(=O)c2cncnc2N[C@@H]2C[C@H](COS(N)(=O)=O)[C@@H](O)C2)cc1[C@@H]1OCCn2c(C)cnc21` (mixture of isomers) [I-296, [(1R,2S,4R)-2-hydroxy-4-{[5-({5-methyl-4-[(8S)-3-methyl-5,6-dihydro-8H-imidazo[2,1-c][1,4]oxazin-8-yl]-2-thienyl}carbonyl)pyrimidin-4-yl]amino}cyclopentyl]methyl sulfamate and [(1R,2S,4R)-2-hydroxy-4-{[5-({5-methyl-4-[(8R)-3-methyl-5,6-dihydro-8H-imidazo[2,1-c][1,4]oxazin-8-yl]-2-thienyl}carbonyl)pyrimidin-4-yl]amino}cyclopentyl]methyl sulfamate], for which the “Percent Inhibition” value worked out at 98% and the IC50 was less than 10 nM.

With `Cc1sc(C(=O)c2cncnc2N[C@@H]2C[C@H](COS(N)(=O)=O)[C@@H](O)C2)cc1[C@@H]1OCCc2ccc(C(F)(F)F)nc21.Cc1sc(C(=O)c2cncnc2N[C@@H]2C[C@H](COS(N)(=O)=O)[C@@H](O)C2)cc1[C@H]1OCCc2ccc(C(F)(F)F)nc21` (mixture of isomers) [I-297, [(1R,2S,4R)-2-hydroxy-4-{[5-({5-methyl-4-[(8S)-2-(trifluoromethyl)-5,8-dihydro-6H-pyrano[3,4-b]pyridin-8-yl]-2-thienyl}carbonyl)pyrimidin-4-yl]amino}cyclopentyl]methyl sulfamate and [(1R,2S,4R)-2-hydroxy-4-{[5-({5-methyl-4-[(8R)-2-(trifluoromethyl)-5,8-dihydro-6H-pyrano[3,4-b]pyridin-8-yl]-2-thienyl}carbonyl)pyrimidin-4-yl]amino}cyclopentyl]methyl sulfamate], the “Percent Inhibition” value is 96% and the IC50 was less than 10 nM.

For the compound `Cc1sc(C(=O)c2cncnc2N[C@@H]2C[C@H](COS(N)(=O)=O)[C@@H](O)C2)cc1[C@@H]1OCCc2oc(Cl)cc21` (mixture of isomers) [I-298, [(1R,2S,4R)-4-{[5-({4-[(4R)-2-chloro-6,7-dihydro-4H-furo[3,2-c]pyran-4-yl]-5-methyl-2-thienyl}carbonyl)pyrimidin-4-yl]amino}-2-hydroxycyclopentyl]methyl sulfamate and [(1R,2S,4R)-4-{[5-({4-[(4S)-2-chloro-6,7-dihydro-4H-furo[3,2-c]pyran-4-yl]-5-methyl-2-thienyl}carbonyl)pyrimidin-4-yl]amino}-2-hydroxycyclopentyl]methyl sulfamate], the “Percent Inhibition” value amounted to 96% and the IC50 is less than 10 nM.

In the case of `NS(=O)(=O)OC[C@H]1C[C@@H](Nc2ncncc2C(=O)c2cc([C@H]3OCCc4c(Cl)cccc43)cs2)C[C@@H]1O` (mixture of isomers) [I-301, [(1R,2S,4R)-4-{[5-({4-[(1R)-5-chloro-3,4-dihydro-1H-isochromen-1-yl]-2-thienyl}carbonyl)pyrimidin-4-yl]amino}-2-hydroxycyclopentyl]methyl sulfamate and [(1R,2S,4R)-4-{[5-({4-[(1S)-5-chloro-3,4-dihydro-1H-isochromen-1-yl]-2-thienyl}carbonyl)pyrimidin-4-yl]amino}-2-hydroxycyclopentyl]methyl sulfamate], the “Percent Inhibition” value was 99% and the IC50 was less than 10 nM.

For the compound `NS(=O)(=O)OC[C@H]1C[C@@H](Nc2ncncc2C(=O)c2cc([C@H]3NCCc4ccccc43)c(Cl)s2)[C@H](O)[C@@H]1O` (mixture of isomers) [I-302, [(1R,2R,3S,4R)-4-{[5-({5-chloro-4-[(1S)-1,2,3,4-tetrahydroisoquinolin-1-yl]-2-thienyl}carbonyl)pyrimidin-4-yl]amino}-2,3-dihydroxycyclopentyl]methyl sulfamate and [(1R,2R,3S,4R)-4-{[5-({5-chloro-4-[(1R)-1,2,3,4-tetrahydroisoquinolin-1-yl]-2-thienyl}carbonyl)pyrimidin-4-yl]amino}-2,3-dihydroxycyclopentyl]methyl sulfamate], the “Percent Inhibition” value was 100% and the IC50 was less than 10 nM.

As for `Cc1sc(C(=O)c2cncnc2N[C@@H]2C[C@H](COS(N)(=O)=O)[C@@H](O)C2)cc1[C@@H]1OCCc2ccc(Cl)c(F)c21` (mixture of isomers) [I-303, [(1R,2S,4R)-4-{[5-({4-[(1R)-7-chloro-8-fluoro-3,4-dihydro-1H-isochromen-1-yl]-5-methyl-2-thienyl}carbonyl)pyrimidin-4-yl]amino}-2-hydroxycyclopentyl]methyl sulfamate and [(1R,2S,4R)-4-{[5-({4-[(1S)-7-chloro-8-fluoro-3,4-dihydro-1H-isochromen-1-yl]-5-methyl-2-thienyl}carbonyl)pyrimidin-4-yl]amino}-2-hydroxycyclopentyl]methyl sulfamate], the “Percent Inhibition” value is given as 99% and the IC50 was less than 10 nM.

With `CN1CCc2ccc(Cl)cc2[C@H]1c1csc(C(=O)c2cncnc2N[C@@H]2C[C@H](COS(N)(=O)=O)[C@@H](O)C2)c1` (mixture of isomers) [I-307, [(1R,2S,4R)-4-{[5-({4-[(1R)-7-chloro-2-methyl-1,2,3,4-tetrahydroisoquinolin-1-yl]-2-thienyl}carbonyl)pyrimidin-4-yl]amino}-2-hydroxycyclopentyl]methyl sulfamate and [(1R,2S,4R)-4-{[5-({4-[(1S)-7-chloro-2-methyl-1,2,3,4-tetrahydroisoquinolin-1-yl]-2-thienyl}carbonyl)pyrimidin-4-yl]amino}-2-hydroxycyclopentyl]methyl sulfamate], the “Percent Inhibition” value came out at 95% and the IC50 is less than 10 nM.

Turning to `Cc1cn2c(n1)[C@H](c1cc(C(=O)c3cncnc3N[C@@H]3C[C@H](COS(N)(=O)=O)[C@@H](O)C3)sc1C)OCC2` (mixture of isomers) [I-309, [(1R,2S,4R)-2-hydroxy-4-{[5-({5-methyl-4-[(8S)-2-methyl-5,6-dihydro-8H-imidazo[2,1-c][1,4]oxazin-8-yl]-2-thienyl}carbonyl)pyrimidin-4-yl]amino}cyclopentyl]methyl sulfamate and [(1R,2S,4R)-2-hydroxy-4-{[5-({5-methyl-4-[(8R)-2-methyl-5,6-dihydro-8H-imidazo[2,1-c][1,4]oxazin-8-yl]-2-thienyl}carbonyl)pyrimidin-4-yl]amino}cyclopentyl]methyl sulfamate], the “Percent Inhibition” value turned out to be 98% and the IC50 is less than 10 nM.

Consider `Cc1sc(C(=O)c2cncnc2N[C@@H]2C[C@H](COS(N)(=O)=O)[C@@H](O)C2)cc1[C@@H]1OCCc2ccc(C#N)cc21.Cc1sc(C(=O)c2cncnc2N[C@@H]2C[C@H](COS(N)(=O)=O)[C@@H](O)C2)cc1[C@H]1OCCc2ccc(C#N)cc21` (mixture of isomers) [I-313, [(1R,2S,4R)-4-{[5-({4-[(1R)-7-cyano-3,4-dihydro-1H-isochromen-1-yl]-5-methyl-2-thienyl}carbonyl)pyrimidin-4-yl]amino}-2-hydroxycyclopentyl]methyl sulfamate and [(1R,2S,4R)-4-{[5-({4-[(1S)-7-cyano-3,4-dihydro-1H-isochromen-1-yl]-5-methyl-2-thienyl}carbonyl)pyrimidin-4-yl]amino}-2-hydroxycyclopentyl]methyl sulfamate], for which the “Percent Inhibition” value worked out at 94% and the IC50 is less than 10 nM.

Values taken from patent US10780090B2, “Heteroaryl compounds useful as inhibitors of SUMO activating enzyme” (Millennium Pharmaceuticals, Inc., priority 2014, dated 2020).
